Our source for the IC50 and inhibition values is US20210017174A1, “IDENTIFICATION AND USE OF ERK5 INHIBITOR” (Bayer Aktiengesellschaft, priority 2018, published 2021).

The target in one test is T1, ERK5 (Homo sapiens, UniProt Q13164).
T1 construct: host or cells: E. coli
Nature of the test: TR-FRET-based Erk5 activity inhibition assay (biochemical assay ERK5). The settings on record: for IC50: TR-FRET, 250 μM ATP, 1 μM substrate peptide, 60 min at 22° C., read-out: IC50 value biochemiocal ERK5 asssay; for inhibition at 20 µM: read-out: inhibition in biochemical ERK5 assay at a single concentration.

Test [1] relates to SN12C-MEF2-luc (clone #37) reporter cell line. Nature of the test: Luciferase reporter assay in SN12C-MEF2-luc cells (EGF-stimulated, MEF2-responsive luciferase).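 Also: serially diluted compounds at 37 °C, EGF with DMSO as maximum signal and EGF with a 10 µM reference inhibitor as minimum (full inhibition).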 Type of test: cell-based. The settings on record: Homo sapiens, 16 h compound incubation, then EGF 100 ng/ml for 2 h, ONE-Glo luminescence.

T1 sequence (Q13164 1-398): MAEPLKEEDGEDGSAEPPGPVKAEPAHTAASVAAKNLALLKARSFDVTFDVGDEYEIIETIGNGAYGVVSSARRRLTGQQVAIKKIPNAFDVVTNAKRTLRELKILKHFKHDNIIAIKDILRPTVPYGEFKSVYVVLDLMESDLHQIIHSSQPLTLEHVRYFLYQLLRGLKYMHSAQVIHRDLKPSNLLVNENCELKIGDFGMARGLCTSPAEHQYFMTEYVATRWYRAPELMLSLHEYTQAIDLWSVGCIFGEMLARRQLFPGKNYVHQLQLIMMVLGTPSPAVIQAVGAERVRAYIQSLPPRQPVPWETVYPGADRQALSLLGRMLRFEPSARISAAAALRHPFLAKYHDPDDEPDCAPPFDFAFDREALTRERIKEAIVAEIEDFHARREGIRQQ

`COc1cc2ncnc(C3CCN(C(=O)c4ccc(C(C)C)cc4)CC3)c2cc1OC` [Example 18, [4-(6,7-Dimethoxyquinazolin-4-yl)piperidin-1-yl][4-(propan-2-yl)phenyl]-methanone]: at ERK5, the IC50 amounted to 358 nM.
Turning to `O=C(c1ccc2c(C3CCN(C(=O)c4ccc(OC(F)(F)F)cc4)CC3)ncnc2c1)N1CCCC1` [Example 43, Pyrrolidin-1-yl(4-{1-[4-(trifluoromethoxy)benzoyl]piperidin-4-yl}quinazolin-7-yl)methanone], the IC50 on ERK5 was 1590 nM.
Consider `COC(=O)c1ccc2c(C3CCN(C(=O)c4ccc(OC(F)(F)F)cc4)CC3)ncnc2c1` [Example 31, Methyl 4-{1-[4-(trifluoromethoxy)benzoyl]piperidin-4-yl}quinazoline-7-carboxylate], for which the IC50 in test [1] was determined as 14600 nM; on ERK5, 579 nM.
For the compound `O=C(c1ccc2c(C3CCN(C(=O)c4ccc(OC(F)(F)F)cc4)CC3)ncnc2c1)N1CCOCC1` [Example 44, Morpholin-4-yl(4-{1-[4-(trifluoromethoxy)benzoyl]piperidin-4-yl}quinazolin-7-yl)methanone], at ERK5, the IC50 amounted to 2240 nM.
For the compound `O=C(O)c1ccc2c(C3CCN(C(=O)c4ccc(OC(F)(F)F)cc4)CC3)ncnc2c1` [Example 32, 4-{1-[4-(Trifluoromethoxy)benzoyl]piperidin-4-yl}quinazoline-7-carboxylic Acid], the inhibition at 20 µM on ERK5 is 44.2%.
`CC1(C)CN(c2cnc3c(C4CCN(C(=O)c5ccc(OC(F)(F)F)cc5)CC4)ncnc3c2)CCO1` [Example 78, {4-[7-(2,2-Dimethylmorpholin-4-yl)pyrido[3,2-d]pyrimidin-4-yl]piperidin-1-yl}[4-(trifluoromethoxy)phenyl]methanone]: the IC50 was found to be 103 nM in test [1] and 36.3 nM at ERK5.
`O=C(c1ccc(OC(F)(F)F)cc1)N1CCC(c2ncnc3cc(N4CCCC4=O)ccc23)CC1` [Example 54, 1-(4-{1-[4-(Trifluoromethoxy)benzoyl]piperidin-4-yl}quinazolin-7-yl)pyrrolidin-2-one]: the IC50 in test [1] was 942 nM; at ERK5 it was 190 nM.
For `O=C(c1ccc(OC(F)(F)F)cc1)N1CCC(c2ncnc3cc(N4CCC(F)(F)C4)cnc23)CC1` [Example 72, {4-[7-(3,3-Difluoropyrrolidin-1-yl)pyrido[3,2-d]pyrimidin-4-yl]piperidin-1-yl}[4-(trifluoromethoxy)phenyl]methanone], in that order: 415 nM and 69.3 nM.
Take `COc1ccc2c(C3CCN(C(=O)c4ccc(OC(F)(F)F)cc4NC(C)=O)CC3)ncnc2c1` [Example 67, N-[2-{[4-(7-Methoxyquinazolin-4-yl)piperidin-1-yl]carbonyl}-5-(trifluoro-methoxy)phenyl]acetamide]: the IC50 in test [1] is 669 nM; on ERK5 it was 241 nM.
Regarding `CN1CCN(c2cnc3c(C4CCN(C(=O)c5ccc(OC(F)(F)F)cc5N)CC4)ncnc3c2)CC1` [Example 81, [2-Amino-4-(trifluoromethoxy)phenyl]{4-[7-(4-methylpiperazin-1-yl)pyrido[3,2-d]pyrimidin-4-yl]piperidin-1-yl}methanone], inhibition in test [1] was half-maximal at 115 nM (IC50).
`CN(C)C(=O)c1ccc2c(C3CCN(C(=O)c4ccc(OC(F)(F)F)cc4)CC3)ncnc2c1` [Example 42, N,N-Dimethyl-4-{1-[4-(trifluoromethoxy)benzoyl]piperidin-4-yl}quinazoline-7-carboxamide]: on ERK5, the IC50 was 980 nM.
Still for that read-out and setting: in the case of `N#Cc1ccc2c(C3CCN(C(=O)c4ccc(OC(F)(F)F)cc4)CC3)ncnc2c1` [Example 34, 4-{1-[4-(Trifluoromethoxy)benzoyl]piperidin-4-yl}quinazoline-7-carbonitrile] it was 506 nM; in that of `O=C(c1ccc(OC(F)(F)F)cc1)N1CCC(c2ncnc3cc(N4CCCCC4=O)ccc23)CC1` [Example 55, 1-(4-{1-[4-(Trifluoromethoxy)benzoyl]piperidin-4-yl}quinazolin-7-yl)piperidin-2-one], 1300 nM.
Same read-out and setting: under `NC(=O)c1ccc2c(C3CCN(C(=O)c4ccc(OC(F)(F)F)cc4)CC3)ncnc2c1` [Example 33, 4-{1-[4-(Trifluoromethoxy)benzoyl]piperidin-4-yl}quinazoline-7-carboxamide] stands 253 nM; under `CCCc1ccc(C(=O)N2CCC(c3ncnc4cc(OC)c(OC)cc34)CC2)cc1` [Example 20, [4-(6,7-Dimethoxyquinazolin-4-yl)piperidin-1-yl](4-propylphenyl)methanone], 281 nM.
Same read-out and setting: in the case of `COc1cc2ncnc(C3CCN(C(=O)c4ccc(COCC(F)(F)F)cc4)CC3)c2cc1OC` [Example 21, [4-(6,7-Dimethoxyquinazolin-4-yl)piperidin-1-yl]{4-[(2,2,2-trifluoroethoxy)methyl]phenyl}-methanone] it was 2660 nM.
`CS(=O)(=O)Nc1ccc2c(C3CCN(C(=O)c4ccc(OC(F)(F)F)cc4)CC3)ncnc2c1` [Example 39, N-(4-{1-[4-(Trifluoromethoxy)benzoyl]piperidin-4-yl}quinazolin-7-yl)methane-sulfonamide]: the IC50 at ERK5 stood at 351 nM.
Turning to `COc1cc2ncnc(C3CCN(C(=O)c4ccccc4)CC3)c2cc1OC` [Example 9, [4-(6,7-Dimethoxyquinazolin-4-yl)piperidin-1-yl](phenyl)methanone], the IC50 on ERK5 was 6170 nM.
On the same count and under the same terms, under `COc1cc2ncnc(C3CCN(C(=O)c4ccc(Cl)cc4)CC3)c2cc1OC` [Example 4, 4-[1-(4-Chlorobenzoyl)piperidin-4-yl]-6,7-dimethoxyquinazoline] stands 770 nM; under `O=C(Nc1ccccc1)c1ccc2c(C3CCN(C(=O)c4ccc(OC(F)(F)F)cc4)CC3)ncnc2c1` [Example 45, N-Phenyl-4-{1-[4-(trifluoromethoxy)benzoyl]piperidin-4-yl}quinazoline-7-carboxamide], 3260 nM; under `COCCOc1ccc(C(=O)N2CCC(c3ncnc4cc(OC)c(OC)cc34)CC2)cc1` [Example 24, [4-(6,7-Dimethoxyquinazolin-4-yl)piperidin-1-yl][4-(2-methoxyethoxy)phenyl]-methanone], 9660 nM.
Take `COc1cc2ncnc(C3CCN(C(=O)c4ccc(Br)cc4)CC3)c2cc1OC` [Example 12, (4-Bromophenyl)[4-(6,7-dimethoxyquinazolin-4-yl)piperidin-1-yl]methanone]: at ERK5, the IC50 worked out at 190 nM.
On to `O=C(c1ccc(OC(F)(F)F)cc1)N1CCC(c2ncnc3cc(Br)ccc23)CC1` [Example 40, [4-(7-Bromoquinazoline-4-yl)piperidin-1-yl][4-(trifluoromethoxy)phenyl]-methanone], for which the IC50 on ERK5 was 224 nM.
For the compound `CN(C)CCOc1ccc2c(C3CCN(C(=O)c4ccc(OC(F)(F)F)cc4)CC3)ncnc2c1` [Example 56, Formic Acid—(4-{7-[2-(dimethylamino)ethoxy]quinazolin-4-yl}piperidin-1-yl)[4-(trifluoromethoxy)phenyl]methanone (1:1)], the half-maximal inhibitory concentration (IC50) at ERK5 worked out at 198 nM.
Take `Nc1ccc2c(C3CCN(C(=O)c4ccc(OC(F)(F)F)cc4)CC3)ncnc2c1` [Example 37, [4-(7-Aminoquinazolin-4-yl)piperidin-1-yl][4-(trifluoromethoxy)phenyl]-methanone]: the IC50 on ERK5 came to 867 nM.
On the same count and under the same terms, in the case of `COc1ccc2c(C3CCN(C(=O)c4ccc(OC(F)(F)F)cc4C)CC3)ncnc2c1` [Example 61, [4-(7-Methoxyquinazolin-4-yl)piperidin-1-yl][2-methyl-4-(trifluoromethoxy)-phenyl]methanone] it was 504 nM.
As for `O=C(c1ccc(OC(F)(F)F)cc1)N1CCC(c2ncnc3cc(O)ccc23)CC1` [Example 36, [4-(7-Hydroxyquinazolin-4-yl)piperidin-1-yl][4-(trifluoromethoxy)phenyl]-methanone], the IC50 on ERK5 stood at 192 nM.
Consider `CC(C)COc1ccc2c(C3CCN(C(=O)c4ccc(OC(F)(F)F)cc4)CC3)ncnc2c1` [Example 46, {4-[7-(2-Methylpropoxy)quinazolin-4-yl]piperidin-1-yl}[4-(trifluoromethoxy)-phenyl]methanone], for which the IC50 at ERK5 was 293 nM.
On the same count and under the same terms, under `COc1cc2ncnc(C3CCN(C(=O)c4ccc(OC(F)F)cc4)CC3)c2cc1OC` [Example 19, [4-(Difluoromethoxy)phenyl][4-(6,7-dimethoxyquinazolin-4-yl)piperidin-1-yl]methanone] stands 165 nM; under `O=C(c1ccc(OC(F)(F)F)cc1)N1CCC(c2ncnc3cc(OCC4COC4)ccc23)CC1` [Example 48, {4-[7-(Oxetan-3-ylmethoxy)quinazolin-4-yl]piperidin-1-yl}[4-(trifluoromethoxy)-phenyl]methanone], 270 nM.
Take `CC(C)(O)COc1ccc2c(C3CCN(C(=O)c4ccc(OC(F)(F)F)cc4)CC3)ncnc2c1` [Example 63, {4-[7-(2-Hydroxy-2-methylpropoxy)quinazolin-4-yl]piperidin-1-yl}[4-(trifluoro-methoxy)phenyl]-methanone]: the IC50 on ERK5 is 274 nM.
With `COc1cc2ncnc(C3CCN(C(=O)c4ccccc4OC(F)(F)F)CC3)c2cc1OC` [Example 28, [4-(6,7-Dimethoxyquinazolin-4-yl)piperidin-1-yl][2-(trifluoromethoxy)phenyl]-methanone], the inhibition at 20 µM at ERK5 was found to be 16%.
With `O=C(c1ccc(OC(F)(F)F)cc1)N1CCC(c2ncnc3ccccc23)CC1` [Example 58, [4-(Quinazolin-4-yl)piperidin-1-yl][4-(trifluoromethoxy)phenyl]methanone], the IC50 at ERK5 is 1680 nM.
Take `CC(=O)Nc1ccc2c(C3CCN(C(=O)c4ccc(OC(F)(F)F)cc4)CC3)ncnc2c1` [Example 38, N-(4-{1-[4-(Trifluoromethoxy)benzoyl]piperidin-4-yl}quinazolin-7-yl)acetamide]: the IC50 on ERK5 amounted to 1270 nM.
With `COc1ccc2c(C3CCN(C(=O)c4ccc(OC(F)(F)F)c(C)c4)CC3)ncnc2c1` [Example 62, [4-(7-Methoxyquinazolin-4-yl)piperidin-1-yl][3-methyl-4-(trifluoromethoxy)-phenyl]methanone], the IC50 at ERK5 was 274 nM.
